Results reported in US20110287953A1, “METHOD FOR DISCOVERING POTENTIAL DRUGS” (priority 2010, published 2011).

Key:
[1] = tested on: hepatocellular carcinoma or HCC; details: Table 2-3; labels (2) and (3), PubMed references; cited from earlier work
[2] = tested on: HCC cell lines, Mahlavu, PLC5, HepG2, and Huh7; experiment: MTT cell viability test in HCC cell lines
Procedure: (§1) The HCC cell lines, Mahlavu, PLC5, HepG2, and Huh7, were cultured in Dulbecco's Modified Eagle Medium (DMEM; Seromed, Berlin, Germany) supplemented with 10% heat-inactivated fetal bovine serum, 100 μg/ml streptomycin, 100 μg/ml penicillin, and 2 mM L-glutamine in a humidified atmosphere containing 5% CO2 at 37° C. […] The cells were exposed to different concentrations of the small molecules for 72 hours. Control cells were incubated in the absence of small molecules. Afterwards, the cells were incubated with medium containing MTT for 2 hours. […] For the clonogenic assay, Huh7 cells were seeded out in appropriate dilutions in a 6-well plate and treated with selected small molecules at various concentrations for 15 days. Colonies were fixed with glutaraldehyde (6.0% v/v), stained with crystal violet (0.5% w/v), and counted.

HCC cell lines = experiment: Drug efficacy label of top 10 CMap drugs (MTT or clonogenic); format: cell-based; details: Table 2-3; labels (1) and (4); gene set in which the drug ranked top 10;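 further: label 1 means effective by MTT or clonogenic assay and 4 means ineffective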
Procedure: as §1

[3] = tested on: NPC cell lines, TW01, TW03, TW04, BM1
Procedure: NPC cell lines, TW01, TW03, and TW04 provided by Dr. C T Lin (National Taiwan University, Taiwan), were derived from primary nasopharyngeal tumors of Chinese patients with de novo NPC and had been tested and authenticated (27). NPC cell line BM1, provided by Dr. S K Liao (Chang Gung University, Taiwan), was derived from bone metastatic lesions of an NPC patient (28). NPC cell lines were maintained in DMEM with 10% FBS containing penicillin (100 U/mL) and streptomycin (100 μg/mL) in 5% CO2 at 37° C. Cell viability was determined using the XTT cell viability assay kit (Sigma-Aldrich, St. Louis, USA), according to the manufacturer's instructions. […] Cells were exposed with or without small molecules for 72 hours at different concentrations. Then, the cells were incubated with medium containing XTT in an amount equal to 20% of the culture medium volume for 2 hours. Optical density was measured using a microplate reader (Spectral Max250) at 450 nm.

Huh7 cells = experiment: Clonogenic assay; format: cell-based; details: for inhibition at 10 µM: Homo sapiens, Huh-7, 360 h; for inhibition at 10 µM / Clonogenic assay: colony number at 10 μM
Procedure: The HCC cell lines, Mahlavu, PLC5, HepG2, and Huh7, were cultured in Dulbecco's Modified Eagle Medium (DMEM; Seromed, Berlin, Germany) supplemented with 10% heat-inactivated fetal bovine serum, 100 μg/ml streptomycin, 100 μg/ml penicillin, and 2 mM L-glutamine in a humidified atmosphere containing 5% CO2 at 37° C. The viability of the exposed cells was determined using the MTT cell viability assay kit (Sigma-Aldrich, St. Louis, USA), according to the manufacturer's instructions. […] The cells were exposed to different concentrations of the small molecules for 72 hours. Control cells were incubated in the absence of small molecules. Afterwards, the cells were incubated with medium containing MTT for 2 hours. The optical density at 450 nm was measured using a microplate reader (Spectral Max250). For the clonogenic assay, Huh7 cells were seeded out in appropriate dilutions in a 6-well plate and treated with selected small molecules at various concentrations for 15 days. Colonies were fixed with glutaraldehyde (6.0% v/v), stained with crystal violet (0.5% w/v), and counted.

leukemic cells = details: cited from earlier work
B16 melanoma cells = details: cited from earlier work
Huh-7 cells = details: proliferation of Huh-7 cells, other reports; cited from earlier work
[4] = 72 h, Table 3-1, HCC cell lines, MTT
[5] = 72 h, Table 2-2, HCC cell lines, MTT

## O=C(CCCCCCC(=O)Nc1ccccc1)NO [vorinostat]
[1]
  drug efficacy label: vorinostat (2)

## CC(C(O)c1ccc(O)cc1)N1CCC(Cc2ccccc2)CC1 (stereo not drawn) [ifenprodil]
[1]
  drug efficacy label: ifenprodil (3)
[2]; [4]
  IC50: > 10 µM

## CC(/C=C/C(=O)NO)=C\[C@@H](C)C(=O)c1ccc(N(C)C)cc1 [trichostatin A]
HCC cell lines
  drug efficacy label: trichostatin A (1)
[3]
  cytotoxicity in NPC cell lines: Dose-dependent cytotoxicity
[2]; Table 2-2, HCC cell lines, 72 hours, MTT
  IC50: 0.1 to 1 µM
[2]; Table 3-1, HCC cell lines, 72 hours, MTT
  IC50: 0.1 to 1 µM

## O=c1cc(-c2ccc(O)cc2)oc2cc(O)cc(O)c12 [apigenin]
HCC cell lines
  drug efficacy label: apigenin (1)
Huh7 cells
  growth / survival of Huh7 cells: inhibited the growth of Huh7 cells
Huh7 cells; Table 3-1, 15 days
  inhibition at 10 µM: > 50%
Huh7 cells; Table 2-2, 15 days
  Clonogenic assay: Effective (Effectiveness in clonogenic assay is defined as reducing more than 50% colony number at 10 μM)
[2]; [5]
  IC50: > 10 µM
[2]; [4]
  IC50: > 10 µM

## Cc1cc(/C=C/c2ccc3cc(N(C)C)ccc3[n+]2C)c(C)n1-c1ccccc1 [pyrvinium]
[1]
  drug efficacy label: pyrvinium (3)
[2]; [4]
  IC50: 0.1 to 1 µM

## Nc1ccccc1NC(=O)c1ccc(CNC(=O)OCc2cccnc2)cc1 [MS-275]
[1]
  drug efficacy label: MS-275 (2)

## CC[C@@H](CO)NC(=O)[C@@H]1C=C2c3cccc4[nH]cc(c34)C[C@H]2N(C)C1 [methylergometrine]
HCC cell lines
  drug efficacy label: methylergometrine (4)
Huh7 cells; Table 3-1, 15 days
  Clonogenic assay: Ineffective
[2]; 72 h
  IC50: > 10 µM

## CN1CCN(CCCN2c3ccccc3Sc3ccc(C(F)(F)F)cc32)CC1 [trifluoperazine]
HCC cell lines
  drug efficacy label: trifluoperazine (1)
Leukemic cells
  apoptosis: can induce apoptosis
B16 melanoma cells
  apoptosis: can induce apoptosis
[3]
  cytotoxicity in NPC cell lines: Dose-dependent cytotoxicity
Huh7 cells; Table 3-1, 15 days
  inhibition at 10 µM: > 50%
Huh7 cells; Table 2-2, 15 days
  Clonogenic assay: Effective (Effectiveness in clonogenic assay is defined as reducing more than 50% colony number at 10 μM)
[2]; [5]
  IC50: > 10 µM
[2]; [4]
  IC50: > 10 µM

## O=c1cc(-c2ccc(O)c(O)c2)oc2cc(O)cc(O)c12 [luteolin]
HCC cell lines
  drug efficacy label: luteolin (4)
Huh-7 cells
  IC50: ~50 µM
Huh7 cells; Table 3-1, 15 days
  inhibition at 10 µM: > 50%
Huh7 cells; Table 2-2, 15 days
  Clonogenic assay: Ineffective
[2]; [5]
  IC50: > 10 µM
[2]; [4]
  IC50: > 10 µM
